The assay has as its system U937 cell line (human histiocytic lymphoma cell line). Description: U937 cell viability assay (TNF-α + Z-VAD-FMK induced necroptosis). It is filed as cell-based. The following applies: Homo sapiens, U-937; U937 cells, hTNF-α 0.1 μg/mL + Z-VAD-FMK 50 μM, 20 hours, CellTiter-Glo. The method, boiled down: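 U937 cells (1.75×10^4/well, 1% FBS RPMI 1640) were preincubated 1 h with compound (0.0005–1.0 μM, 0.3% DMSO) and 50 μM Z-VAD-FMK, then stimulated with 0.1 μg/mL TNF-α for 20 h at 37 °C. Viability was read by CellTiter-Glo luminescence. Inhibition was normalised between TNF-α+Z-VAD and unstimulated wells, and IC50 was fitted.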
Turning to `CC(C)n1cncc(-c2ccc(C3(NC(=O)c4nnc(Cc5ccccc5)o4)CC3)cc2)c1=O` [Compound 13], the IC50 (usually the concentration needed to halve the response being measured) stood at 4 nM.
The figure for `CC(C)n1cncc(-c2ccc(C3(NC(=O)c4nc5n(n4)[C@@H](c4ccccc4)CC5)CC3)cc2)c1=O` [Compound 15] is 20 nM.
As to `CC(C)n1cncc(-c2ccc(C3(NC(=O)c4nc5n(n4)[C@H](c4ccccc4)CC5)CC3)cc2)c1=O` [Compound 16], the IC50 stood at 2 nM.
For `CC(C)n1cncc(-c2ccc(C3(NC(=O)c4ncn(Cc5ccccc5)n4)CC3)cc2)c1=O` [Compound 17] the value was 1 nM.
For `Cn1cncc(-c2ccc(C3(NC(=O)c4nnc(Cc5c(F)cccc5F)[nH]4)CC3)cc2)c1=O` [Compound 18] the value was 82 nM; for `CC(C)n1cncc(-c2ccc(C3(NC(=O)c4ncc5cnn(-c6ccccc6)c5n4)CC3)cc2)c1=O` [Compound 19], 3 nM; for `CC(C)Cc1nc(C(=O)NC2(c3ccc(-c4cncn(C(C)C)c4=O)cc3)CC2)ncc1Cl` [Compound 22], 3 nM.
On to `CC(C)n1ncc2cnc(C(=O)NC3(c4ccc(-c5cncn(C)c5=O)c(F)c4)CC3)nc21` [Compound 23, N-(1-(3-fluoro-4-(1-methyl-6-oxo-1,6-dihydropyrimidin-5-yl)phenyl)cyclopropyl)-1-isopropyl-1H-pyrazolo[3,4-d]pyrimidine-6-carboxamide], for which the IC50 amounted to 57 nM.
For the compound `CC(C)n1ncc2cnc(C(=O)NC3(c4ccc(-c5cncn(C)c5=O)c(Cl)c4)CC3)nc21` [Compound 25], the IC50 is 32 nM.
The figure for `CC(C)n1ncc2cnc(C(=O)NC3(c4ccc(-c5cncn(C)c5=O)cc4F)CC3)nc21` [Compound 26] is 12 nM.
For `CC(C)n1ncc2cnc(C(=O)NC3(c4ccc(-c5cncn(C)c5=O)cc4)CC3)cc21` [Compound 28, 1-isopropyl-N-(1-(4-(1-methyl-6-oxo-1,6-dihydropyrimidin-5-yl)phenyl)cyclopropyl)-1H-pyrazolo[4,3-c]pyridine-6-carboxamide] the value was 135 nM.
As for `CC(C)n1cncc(-c2ccc(C3(NC(=O)c4ncc5cnn(C(C)C)c5n4)CC3)cc2)c1=O` [Compound 29, 1-isopropyl-N-(1-(4-(1-isopropyl-6-oxo-1,6-dihydropyrimidin-5-yl)phenyl)cyclopropyl)-1H-pyrazolo[3,4-d]pyrimidine-6-carboxamide], the IC50 came to 3 nM.
The figure for `CC(C)n1ncc2cnc(C(=O)NC3(c4ccc(-c5cnc(N)n(C)c5=O)cc4)CC3)nc21` [Compound 30] is 8 nM.
For the compound `CC(C)n1cncc(-c2ccc(C3(NC(=O)c4ncc5cnn(C(C)C)c5n4)CC3)cc2Cl)c1=O` [Compound 33], the IC50 is 10 nM.
For `CC(C)n1cncc(-c2ccc(C3(NC(=O)c4ncc5cnn(C(C)C)c5n4)CC3)c(F)c2)c1=O` [Compound 34], the IC50 was 7 nM.
As to `CC(C)n1cncc(-c2ccc(C3(NC(=O)c4ncc5cnn(C(C)C)c5n4)CC3)cc2F)c1=O` [Compound 35], the IC50 is 11 nM.
As for `CC(C)n1ncc2cnc(C(=O)NC3(c4ccc(-c5cncn(CC6CC6)c5=O)cc4)CC3)nc21` [Compound 36], the IC50 was determined as 3 nM.
For `CCn1cncc(-c2ccc(C3(NC(=O)c4ncc5cnn(C(C)C)c5n4)CC3)cc2)c1=O` [Compound 37] the value was 14 nM.
In the case of `CC(C)n1ncc2cnc(C(=O)NC3(c4ccc(-c5cncn(CC(F)(F)F)c5=O)cc4)CC3)nc21` [Compound 38], the IC50 came out at 13 nM.
Regarding `CC(C)n1ncc2cnc(C(=O)NC3(c4ccc(-c5cncn([C@H](C)C(F)(F)F)c5=O)cc4)CC3)nc21` [Compound 39], the IC50 was 6 nM.
For `CC(C)n1ncc2cnc(C(=O)NC3(c4ccc(-c5cncn([C@@H](C)C(F)(F)F)c5=O)cc4)CC3)nc21` [Compound 40] the value was 12 nM; for `CC(C)n1ncc2cnc(C(=O)NC3(c4ccc(-c5cncn(C6COC6)c5=O)cc4)CC3)nc21` [Compound 41], 64 nM; for `CC(C)n1ncc2cnc(C(=O)NC3(c4ccc(-c5cncn(C6CCC6)c5=O)cc4)CC3)nc21` [Compound 42], 7 nM.

Source of the values: patent US20240002388A1, “PYRIMIDINONE COMPOUNDS AND USES THEREOF” (HUTCHISON MEDIPHARMA LIMITED, priority 2020, published 2024).
